Assay results taken from patent US7449453B2, “Compositions of ezetimibe and methods for the treatment of cholesterol-associated benign and malignant tumors” (Karykion Inc., priority 2002, dated 2008).
Entries after “also recorded” stand apart in the source; their conditions may differ.

Assays:
[1] = cited from earlier work; for serum cholesterol levels: mice fed a low cholesterol diet; for elevated serum cholesterol levels: mice, induced by high cholesterol diets
[2] = tested on: LNCaP cells transfected with HB-EGF; experiment: SCID mice transplanted subcutaneously with LNCaP cells transfected with HB-EGF, high cholesterol diet; format: in vivo; details: for tumor growth and progression vs untreated controls: 10 mg/kg body weight in diet, started 2 weeks after implantation, 6-12 weeks of treatment, intact and castrated animals; for tumor volumes: progression and growth of the implanted tumors vs untreated controls: 30 mg/kg of body weight, started 2 weeks after tumor implantation, after 12 weeks, high cholesterol diet
Excerpt: Prostate cancer is a leading cause of mortality in males in North America with between 30,000 to 40,000 deaths per year in the United States. While chemotherapy has not been very efficacious in the treatment of prostate cancer, an alternative approach has been to target prostate cancer cell survival pathways, particularly the PI3 kinase/Akt/PTEN signaling axis, which has been identified as an important cell survival mechanism in PCa and other cancers. Recently it has been determined that membrane cholesterol is an important component of a mechanism that transfers survival signals from the cell exterior to the Akt1 serine-threonine kinase. It has also been shown recently that elevated serum cholesterol accelerates the growth, lowers the extent of cellular apotosis, and increases the level of Akt activation in prostate tumors within a murine prostate cancer model. Findings indicate that cholesterol plays a critical role in the ability of prostate cancer cells to resist apoptotic stimuli. The role of cholesterol in prostate cancer cell survival is so critical that drugs that bind cholesterol (polyene macrolides), extract cholesterol from membranes (cyclodextrin) or block cholesterol synthesis (statins) all alter essential membranes (lipid rafts) and reduce their capacity to regulate cell signaling. Cholesterol plays a crucial role in specifically regulating prostate cancer growth and survival. In these studies a unique prostate murine model system is used. This model features the human prostate adenocarcinoma cell line, LNCaP transfected with HB-EGF. LNCAP cells resemble typical prostate tumor cells in their general morphology, production of PSA and PTEN null status. Stable transfection with HB-EGF, a physiologically relevant EGFR ligand that originates in the prostatic stroma, permits LNCaP cells to form tumors in vivo in an androgen—independent manner. Subcutaneous implantation of these LNCaP cells into 4 quadrants of SCID mice results in rapid tumor growth in intact and castrated mice over an eight week period. […] Mice placed on a high cholesterol diet 4 weeks prior to tumor implantation are started on ezetimibe and SCH 48461 @ 30 mg/kg of body weight 2 weeks after tumor implantation.
Subcutaneous implantations of LNCaP cells into 4 quadrants of SCID mice (2×10^6 cells in 150 ul Matrigel per injection site) results in rapid tumor growth in intact and castrated hosts on a high cholesterol diet over an 8 week period. Two weeks after tumor cell implantation, the animals are given ezetimibe in their diet at 10 mg/kg body weight.

[3] = tested on: benign prostatic hyperplasia; details: controlled double blind study; cited from earlier work
[4] = tested on: BIO 87.20 male Syrian hamster; experiment: Ezetimibe treatment of BIO 87.20 male Syrian hamsters that develop spontaneous cystic prostatic hypertrophy and other tumors; format: in vivo
Excerpt: The BIO 87.20 male Syrian hamster is a well-known inbred line that develops, spontaneously, an age-dependent and genetic related cystic prostatic hypertrophy and is recognized in the art as an excellent model for human prostate disease. See, e.g., Homburger et al., 1970, Proc. Soc. Exptl. Biol. Med., 134:284-286; Homburger, 1972, Health Lab Sci., 9:103-111; Wang et al., 1976, Invest. Urol., 14:66-71. The BIO 87.20 strain of hamster develops multiple tumors after 12 months of age.
The stromal hyperplasia and changes in the epithelial cells are also observed upon microscopic examination. […] The BIO 87.20 and BIO 1.5 strains of male Syrian hamster are employed in the ezetimibe studies presented herein. […] Schaffner et al., Lipids 16:835-840 (1981). The defect in cholesterol synthesis and the development of cystic prostatic hypertrophy in the BIO 87.20 male hamster is related.
16 BIO 1.5 and 48 BIO 87.20 male Syrian hamsters are obtained from Bio Breeders, Inc. Boston, Mass. Among these animals, 8 BIO 1.5 and 24 BIO 87.20 hamsters are 6 months of age, while the remainder, consisting of […] and 24 BIO 87.20 hamsters, are 12 months of age. The animals are housed in individual cages. All animals are given water ad libitum and are housed under automatic regime of 12 hours artificial light and 12 hours darkness. Food consumption is be monitored to ensure equivalent intake in all animals. The drug, ezetimibe, is powdered and mixed into ground PURINA® hamster chow. Concentrations of ezetimibe, in the food, is adjusted according to quantity of food intake per hamster per day and expressed as average μg of ezetimibe per kg body weight per day.
The animals are divided into 8 experimental groups containing 8 animals each. The groups may be characterized as follows:
Control BIO 1.5 and control and treated BIO 87.20 male Syrian hamsters, both 6 and 12 months of age, are used as follows. In the treated group of BIO 87.20 male Syrian hamsters, ezetimibe is administered as a powder in the diet. Treatment with doses of ezetimibe of 100 and 1000 micrograms per kilogram body weight of the BIO 87.20 animals is continued for 6 months. […] After 6 months of treatment the animals are sacrificed and the prostate glands excised, weighed and preserved for histopathological examination.

[5] = tested on: tumor initiation and progression; details: long-term rat studies; cited from earlier work

O=C1N(c2ccc(F)cc2)[C@H](c2ccc(O)cc2)C12CCC(O)(c1ccc(Cl)cc1)CC2 (single isomer, unassigned; (+)) [SCH 58053, (+)-7-(4-chlorophenyl)-2-(4-flourophenyl)-7-hydroxy-3R-(4-hydroxyphenyl)-2-azaspiro[3,5]nonan-1-one]
serum cholesterol levels [1]: do not generally affect serum cholesterol levels | elevated serum cholesterol levels [1]: do lower elevated serum cholesterol levels

COc1ccc([C@@H]2[C@@H](CCCc3ccccc3)C(=O)N2c2ccc(OC)cc2)cc1 [SCH 48461]
tumor growth and progression vs untreated controls [2]: significant inhibition of tumor growth and progression | tumor volumes: progression and growth of the implanted tumors vs untreated controls [2]: significantly inhibits the progression and growth of the implanted tumors | serum cholesterol levels [1]: do not generally affect serum cholesterol levels | elevated serum cholesterol levels [1]: do lower elevated serum cholesterol levels

CC[C@H](CC[C@@H](C)[C@H]1CC[C@H]2[C@@H]3CC=C4C[C@@H](O)CC[C@]4(C)[C@H]3CC[C@]12C)C(C)C [beta-sitosterol]
effectiveness in the treatment of benign prostatic hyperplasia [3]: effective

O=C1[C@H](CC[C@H](O)c2ccc(F)cc2)[C@@H](c2ccc(O)cc2)N1c1ccc(F)cc1 [ezetimibe, 1-(4-fluorophenyl)-(3R)-[3-(4-fluorophenyl)-(3S)-hydroxypropyl]-(45)-(4-hydroxyphenyl)-2-azetidinone]
effect of higher dose on inhibition and reversal of the prostate enlargement ([4]; 1000 μg/kg body weight): greater effect on the inhibition and reversal of the prostate enlargement | inhibitory effect on size increase of the prostate gland, higher vs lower dose ([4]; 1000 μg/kg body weight, beginning at 6 months of age, 6 months): greater inhibitory effect on size increase of the prostate gland | level of effect on ventral prostate weights, higher vs lower dose ([4]; 1000 vs 100 μg/kg body weight, beginning at 12 months of age, 6 months): significantly greater at the higher dosage | tumors at the end of the experiment vs BIO 87.20 control animals of the same age ([4]; as referred to Example II): no tumors | cystic prostatic hypertrophy on histopathological examination vs untreated controls ([4]; beginning at 6 months of age, after 6 months of treatment): marked reduction in the cystic prostatic hypertrophy | established prostatic enlargement (reversal) ([4]; beginning at 12 months of age, enlargement already present): reverses the prostatic enlargement | miscellaneous tumors other than that of the prostate gland ([4]; oral 1000 μg/kg body weight, beginning at 12 months of age, 6 months): very few tumors are observed | development of cystic prostatic hypertrophy ([4]; oral route): inhibits the development of cystic prostatic hypertrophy | other cholesterol-associated tumor formation ([4]; summary statement, dose not given): inhibits other cholesterol-associated tumor formation | histology of the prostates on histopathological examination ([4]; treated BIO 87.20 compared with BIO 1.5 prostate sections): more normal histology | prostatic enlargement / prostate gland volume vs untreated control BIO 87.20 ([4]; treatment beginning at 6 months of age, 6 months, 100 and 1000 μg/kg body weight in diet): inhibits prostatic enlargement; also recorded: marked inhibitory effect on the prostate gland volume | prostatic mass or volume / excised ventral prostate weights vs untreated BIO 87.20 controls ([4]; treatment beginning at 12 months of age, 6 months, 100 and 1000 μg/kg body weight): reduces the prostatic mass or volume; also recorded: markedly reduced | tumor growth and progression vs untreated controls [2]: marked inhibition of tumor growth and progression | tumor volumes: progression and growth of the implanted tumors vs untreated controls [2]: significantly inhibits the progression and growth of the implanted tumors | serum cholesterol levels [1]: do not generally affect serum cholesterol levels | elevated serum cholesterol levels [1]: do lower elevated serum cholesterol levels

candicidin
tumor initiation and progression vs untreated controls [5]: inhibit tumor initiation and progression
